Assays:
A2.1/K^b-Tg mice = test: Peptide priming of A2.1/K^b-Tg mice, lytic activity of peptide-specific CTL; assay type: in vivo
HLA-A2.1 = HLA-A2.1 (Homo sapiens, UniProt P04439, D140Y/D185E/D98H/E176V/E277Q/G131W/G231S/I119V/I121R/I166T/I218V/L300P/L318F/N151K/N90K/P208A/P217A/Q86G/Q94H/R138H/R169H/T345S); test: Competition assay for peptide binding to HLA-A2.1 (inhibition of A clone 12 lysis of M1-pulsed EA2 targets)
JY = test: Cytotoxicity assay, lysis of human tumors by H3 and H7 specific CTL; assay type: cell-based; design: scale not given here; conditions: Lymphoma, A2 +, Her-2 −
Procedure: (§1) […] target cells were incubated at 37° C. with […] of sodium ^51Cr chromate for 90 minutes in the presence or absence of specific peptide. Cells were washed three times and resuspended in 5% RPMI. For the assay, […] ^51Cr-labeled target cells were incubated with different concentrations of effector cells in a final volume of […] in U-bottomed 96-well plates. Supernatants were removed after 4-7 hrs at 37° C., and the percent specific lysis was determined by the following formula: [formula]
(§2) Tumor cells were preincubated for 24 hours prior to the assay in media supplemented with γ-interferon (γ-IFN, 20 ng/ml) plus tumor necrosis factor-α (TNF-α, 3 ng/ml). It is known that such pretreatment of tumor cells increases the expression of MHC I and adhesion molecules such as ICAM I on the surface of the cell thus enhancing their sensitivity to lysis by CTL. (See, e.g., Fisk, et al., Lympho. & Cytokine Res. 13: 125-131 (1994); Fady, et al., Cancer Immunol. Immunother. 37: 329-336 (1993).)

MDA.MB435 = test: as above; assay type: cell-based; design: scale not given here; conditions: Breast, A2 −, Her-2 +
Procedure: as §1, §2

MALME-3M = test: as above; assay type: cell-based; design: scale not given here; conditions: Melanoma, A2 +, Her-2 +
Procedure: as §1, §2

[1] = system: A2.1/K^b×CD8 or A2.1 transgenic (Tg) mice; test: Immunization of transgenic mice with Her-2/neu peptides, cytotoxicity against peptide-pulsed T2-A2.1/K^b; assay type: in vivo; conditions: A2.1/K^b×CD8 or A2.1 Tg mice
Procedure: A2.1/K^b×CD8 and/or A2.1 transgenic mice were immunized with each of the peptides listed in Table 6 to determine if they could stimulate A2.1-restricted CTL. Mice were immunized with a mixture of 100 mg of the Her-2/neu peptide with 120 mg “helper” peptide in 100 ml Incomplete Freund's Adjuvant (IFA).
A2.1/K^b×CD8 or A2.1 lipopolysaccharide (LPS) -blasts were prepared as stimulators for in vitro restimulation of spleen cells from immunized mice. These were prepared by incubating splenocytes from A2/K^b or A2.1 mice in complete RPMI containing 25 mg/ml LPS and 7 mg/ml dextran sulfate at 1.5×10^6 cells/ml in a total volume of 30 ml for 3 days. […] Six days following in vitro restimulation, the CTL populations were assayed for lytic activity against T2-A2/K^b target cells preincubated with the peptide used for stimulation (15 mM). The resultant Her-2/neu peptide-specific CTL populations were maintained in vitro by weekly restimulation. […]
Spleen cells from injected animals were restimulated in vitro with irradiated syngeneic cells pulsed with the peptide used for in vivo priming. Immunogenicity was evaluated by assaying these cultured cells for cytotoxicity against T2-A2.1/K^b target cells pulsed with the priming peptide. […]

U87G = test: Cytotoxicity assay, lysis of human tumors by H3 and H7 specific CTL; assay type: cell-based; conditions: Glioblastoma, A2 +
Procedure: as §1, §2

MDA.M8231 = test: as above; assay type: cell-based; conditions: Breast, A2 +
Procedure: as §1, §2

LG-2 = test: as above; assay type: cell-based; conditions: EBV-trans., A2 +, Her-2 −
Procedure: as §1, §2

SAOS.175 = test: as above; assay type: cell-based; conditions: Osteosarcoma, A2 +, Her-2 +
Procedure: as §1, §2

CASKI = test: as above; assay type: cell-based; conditions: Cervix, A2 +, Her-2 +
Procedure: as §1, §2

ST486 = test: as above; assay type: cell-based; conditions: Lymphoma, A2 +, Her-2 −
Procedure: as §1, §2

NCI.H1355 = test: as above; assay type: cell-based; conditions: Lung, A2 +
Procedure: as §1, §2

MCF-7 = test: as above; assay type: cell-based; conditions: Breast, A2 +
Procedure: as §1, §2

OVCAR-5 = test: as above; assay type: cell-based; conditions: Ovarian, A2 +, Her-2 +
Procedure: as §1, §2

T98G = test: as above; assay type: cell-based; conditions: Glioblastoma, A2 +, Her-2 +
Procedure: as §1, §2

U2-OS = test: as above; assay type: cell-based; conditions: Osteosarcoma, A2 +, Her-2 +
Procedure: as §1, §2

BT549 = test: as above; assay type: cell-based; conditions: Breast, A2 +
Procedure: as §1, §2

Hep-G2 = test: as above; assay type: cell-based; conditions: Hepatoma, A2 +
Procedure: as §1, §2

SW480 = test: as above; assay type: cell-based; conditions: Colon, A2 +
Procedure: as §1, §2

SV80 = test: as above; assay type: cell-based; conditions: Fibroblast, A2 +, Her-2 −
Procedure: as §1, §2

SKMEL-5 = test: as above; assay type: cell-based; conditions: Melanoma, A2 +, Her-2 +
Procedure: as §1, §2

[2] = E:T 60:1, T2A2/K^b targets pulsed with two mg of peptide, highest of at least three individual mice
[3] = peptide-priming of A2.1/K^b-Tg mice
[4] = + CYT (γ-IFN 20 ng/ml plus TNF-α 3 ng/ml, 24 hours)

## LLPENNVLS [hu-wt-p53: 25-33]
A2.1/K^b-Tg mice; [2]
  Lytic Activity by Peptide-Specific CTL After Priming of A2.1/K^b-Tg Mice [Specific 51Cr release (%)]: 3%

## LLPENNVLSPL [hu-wt-p53: 25-35]
A2.1/K^b-Tg mice; [2]
  Lytic Activity by Peptide-Specific CTL After Priming of A2.1/K^b-Tg Mice [Specific 51Cr release (%)]: 47%
A2.1/K^b-Tg mice; [3]
  A2.1/K^b-restricted peptide-specific CTL response, in words: detectable
HLA-A2.1
  A2.1-binding activity / affinity, in words: high affinity

## LMLSPDDIEQ [hu-wt-p53: 43-52]
A2.1/K^b-Tg mice; [2]
  Lytic Activity by Peptide-Specific CTL After Priming of A2.1/K^b-Tg Mice [Specific 51Cr release (%)]: 3%

## NLLGRNSFEV [hu-wt-p53: 263-272]
A2.1/K^b-Tg mice; [2]
  Lytic Activity by Peptide-Specific CTL After Priming of A2.1/K^b-Tg Mice [Specific 51Cr release (%)]: 3%

## NTFRHSVVV [hu-wt-p53: 210-218]
A2.1/K^b-Tg mice; [2]
  Lytic Activity by Peptide-Specific CTL After Priming of A2.1/K^b-Tg Mice [Specific 51Cr release (%)]: 6%

## PLDGEYFTL [hu-wt-p53: 322-330]
A2.1/K^b-Tg mice; [2]
  Lytic Activity by Peptide-Specific CTL After Priming of A2.1/K^b-Tg Mice [Specific 51Cr release (%)]: 0%
A2.1/K^b-Tg mice; [3]
  A2.1/K^b-restricted peptide-specific CTL response, in words: lack of CTL responsiveness
HLA-A2.1
  A2.1-binding activity / affinity, in words: intermediate

## RGYVYQGL [VSV-N: 52-59, reference compound]
HLA-A2.1
  (%) [inhibition of A2.1-binding of M1 (58-66)]: 4%

## RMPEAAPPV [hu-wt-p53: 65-73]
A2.1/K^b-Tg mice; [2]
  Lytic Activity by Peptide-Specific CTL After Priming of A2.1/K^b-Tg Mice [Specific 51Cr release (%)]: 85%
A2.1/K^b-Tg mice; [3]
  A2.1/K^b-restricted peptide-specific CTL response, in words: detectable
HLA-A2.1
  A2.1-binding activity / affinity, in words: high affinity

## STPPPGTRV [hu-wt-p53: 149-157]
A2.1/K^b-Tg mice; mouse, in vivo
  A2.1/K^b-restricted peptide-specific CTL response, in words: detectable
  Lytic Activity by Peptide-Specific CTL After Priming of A2.1/K^b-Tg Mice [Specific 51Cr release (%)]: 91%
HLA-A2.1
  A2.1-binding activity / affinity, in words: intermediate affinity

## VAPAPAAPT [hu-wt-p53: 73-81]
A2.1/K^b-Tg mice; [2]
  Lytic Activity by Peptide-Specific CTL After Priming of A2.1/K^b-Tg Mice [Specific 51Cr release (%)]: 0%

## VLSPLPSQA [hu-wt-p53: 31-39]
A2.1/K^b-Tg mice; [2]
  Lytic Activity by Peptide-Specific CTL After Priming of A2.1/K^b-Tg Mice [Specific 51Cr release (%)]: 3%

## VLSPLPSQAM [hu-wt-p53: 31-40]
A2.1/K^b-Tg mice; [2]
  Lytic Activity by Peptide-Specific CTL After Priming of A2.1/K^b-Tg Mice [Specific 51Cr release (%)]: 0%

## VMAGVGSPYV [Peptide H7]
JY; [4]
  Killing of Tumors Expressing Her-2/neu: 2
JY; without cytokines
  Killing of Tumors Expressing Her-2/neu: 4
MDA.MB435; [4]
  Killing of Tumors Expressing Her-2/neu: 1
MDA.MB435; without cytokines
  Killing of Tumors Expressing Her-2/neu: 1
MALME-3M; [4]
  Killing of Tumors Expressing Her-2/neu: 14
MALME-3M; without cytokines
  Killing of Tumors Expressing Her-2/neu: 4
[1]
  ability to stimulate a CTL response in Tg mice, in words: able to stimulate a CTL response
U87G; [4]
  Killing of Tumors Expressing Her-2/neu: 1
U87G; without cytokines
  Killing of Tumors Expressing Her-2/neu: 1
MDA.M8231; [4]
  Killing of Tumors Expressing Her-2/neu: 89
MDA.M8231; without cytokines
  Killing of Tumors Expressing Her-2/neu: 26
LG-2; [4]
  Killing of Tumors Expressing Her-2/neu: 3
LG-2; without cytokines
  Killing of Tumors Expressing Her-2/neu: 1
SAOS.175; [4]
  Killing of Tumors Expressing Her-2/neu: 35
SAOS.175; without cytokines
  Killing of Tumors Expressing Her-2/neu: 27
CASKI; [4]
  Killing of Tumors Expressing Her-2/neu: 20
CASKI; without cytokines
  Killing of Tumors Expressing Her-2/neu: 9
ST486; [4]
  Killing of Tumors Expressing Her-2/neu: 8
ST486; without cytokines
  Killing of Tumors Expressing Her-2/neu: 5
NCI.H1355; [4]
  Killing of Tumors Expressing Her-2/neu: 62
NCI.H1355; without cytokines
  Killing of Tumors Expressing Her-2/neu: 13
MCF-7; [4]
  Killing of Tumors Expressing Her-2/neu: 40
MCF-7; without cytokines
  Killing of Tumors Expressing Her-2/neu: 7
OVCAR-5; [4]
  Killing of Tumors Expressing Her-2/neu: 23
OVCAR-5; without cytokines
  Killing of Tumors Expressing Her-2/neu: 13
T98G; [4]
  Killing of Tumors Expressing Her-2/neu: 93
T98G; without cytokines
  Killing of Tumors Expressing Her-2/neu: 29
U2-OS; [4]
  Killing of Tumors Expressing Her-2/neu: 62
U2-OS; without cytokines
  Killing of Tumors Expressing Her-2/neu: 30
BT549; [4]
  Killing of Tumors Expressing Her-2/neu: 36
BT549; without cytokines
  Killing of Tumors Expressing Her-2/neu: 2
Hep-G2; [4]
  Killing of Tumors Expressing Her-2/neu: 29
Hep-G2; without cytokines
  Killing of Tumors Expressing Her-2/neu: 4
SW480; [4]
  Killing of Tumors Expressing Her-2/neu: 17
SW480; without cytokines
  Killing of Tumors Expressing Her-2/neu: 2
SV80; [4]
  Killing of Tumors Expressing Her-2/neu: 2
SV80; without cytokines
  Killing of Tumors Expressing Her-2/neu: 2
SKMEL-5; [4]
  Killing of Tumors Expressing Her-2/neu: 40
SKMEL-5; without cytokines
  Killing of Tumors Expressing Her-2/neu: 16

Source: patent US20030022820A1, “IN VIVO ACTIVATION OF TUMOR-SPECIFIC CYTOTOXIC T CELLS” (priority 1995, published 2003)
